# According to US6875761B2 (Eisai Co., Ltd., priority 1997, dated 2005):
# Where a name gives a salt, the structure may show the parent alone.
row,Compound,melting point
1,"CCN1CCN(c2nc(-c3ccc(N4C[C@@H](C)O[C@@H](C)C4)nc3)cc3ccccc23)CC1 (as salt: hydrochloride) [Example 149, 3-[2-(2,6-dimethylmorpholin-4-yl)pyridin-5-yl]-1-(4-ethylpiperazin-1-yl)isoquinoline trihydrochloride]",180 °C
2,"CCN1CCN(c2nc(-c3ccc(N4CCSCC4)nc3)cc3ccccc23)CC1 (as salt: hydrochloride) [Example 150, 1-(4-ethylpiperazin-1-yl)-3-[2-(thiomorpholin-4-yl)pyridin-5-yl]isoquinoline trihydrochloride]",210 °C
3,"CCN1CCN(c2nc(-c3ccc(N4CC[S+]([O-])CC4)nc3)cc3ccccc23)CC1 (as salt: hydrochloride) [Example 151, 1-(4-ethylpiperazin-1-yl)-3-[2-(S-oxythiomorpholin-4-yl)pyridin-5-yl]isoquinoline trihydrochloride]",170 °C
4,"CCN1CCN(c2nc(-c3ccc(N4CCC(OC)CC4)nc3)cc3ccccc23)CC1 (as salt: hydrochloride) [Example 153, 1-(4-ethylpiperazin-1-yl)-3-[2-(4-methoxypiperidin-1-yl)pyridin-5-yl]isoquinoline trihydrochloride]",170 °C
5,"CCN1CCN(c2nc(-c3ccc(N4CCC(CO)CC4)nc3)cc3ccccc23)CC1 (as salt: hydrochloride) [Example 154, 1-(4-ethylpiperazin-1-yl)-3-[2-(4-hydroxymethylpiperidin-1-yl)pyridin-5-yl]isoquinoline trihydrochloride]",188 °C
6,"CCN1CCN(c2nc(-c3ccc(N4CCOCC4)cc3)cc3ccccc23)CC1 (as salt: hydrochloride) [Example 160, 3-[4-(4-morpholinyl)phenyl]-1-(4-ethylpiperazin-1-yl)isoquinoline dihydrochloride]",242 to 245 °C (dec.)
7,"CCN1CCN(c2nc(-c3csc(CO)c3)cc3ccccc23)CC1 (as salt: hydrochloride) [Example 161, 1-(1-ethylpiperazin-4-yl)-3-(2-hydroxymethylthiophen-4-yl)isoquinoline dihydrochloride]",170 °C
8,"CCN1CCN(c2nc(-c3cnc(N4CCOCC4)s3)cc3ccccc23)CC1 (as salt: hydrochloride) [Example 173, 1-(1-ethylpiperazin-4-yl)-3-[2-(4-morpholinyl)-5-thiazolyl]isoquinoline dihydrochloride]",265 °C (dec.)
9,"CCCC(=O)Nc1ncc(-c2cc3ccccc3c(N3CCN(CC)CC3)n2)cn1 (as salt: hydrochloride) [Example 174, 3-(2-Propylcarbonylaminopyrimidin-5-Yl)-1-(4-Ethylpiperazin-1-Yl)Isoquinoline Hydrochlroide]",216 to 219 °C
10,"CCN1CCN(c2nc(-c3ccc(C4=CCOCC4)s3)cc3ccccc23)CC1 (as salt: hydrochloride) [Example 176, 3-[2-(5,6-Dihydro-2H-Pyran-4-Yl)Thiophen-5-Yl]-1-[4-Ethylpiperazin-1-Yl)Isoquinoline Hydrochloride]",256 to 258 °C
11,"CCN1CCN(c2nc(C#Cc3ccccc3)cc3ccccc23)CC1 (as salt: hydrochloride) [Example 177, 1-(1-Ethylpiperazin-4-Yl)-3-(Phenylethynyl)Isoquinoline Dihydrochloride]",133 to 136 °C
12,"CCN1CCN(c2nc(C#Cc3ccc(OC)cc3)cc3ccccc23)CC1 (as salt: hydrochloride) [Example 178, 1-(1-Ethylpiperazin-4-Yl)-3-(4-Methoxyphenyl)Ethynylisoquinoline Dihydrochloride]",230 °C (dec.)
13,"CCN1CCN(c2nc(C#CCCc3ccccc3)cc3ccccc23)CC1 (as salt: hydrochloride) [Example 182, 1-(1-Ethylpiperazin-4-Yl)-3-[4-Phenyl-1-Butynyl)Isoquinoline Dihydrochloride]",120 to 128 °C
14,"CCN1CCN(c2nc(C#Cc3ccc(OCCO)cc3)cc3ccccc23)CC1 (as salt: hydrochloride) [Example 183, 1-(1-Ethylpiperazin-4-Yl]-3-[4-(2-Hydroxyethoxy)Phenylethynyl]Isoquinoline Dihydrochloride]",205 to 208 °C
15,"CCN1CCN(c2nc(C#Cc3cncc(CCCOC)c3)cc3ccccc23)CC1 (as salt: hydrochloride) [Example 186, 1-(1-Ethylpiperazin-4-Yl)-3-[3-(3-Methoxypropyl)-5-Pyridyl]Ethynylisoquinoline]",135 to 140 °C
16,"CCN1CCN(c2nc(C#Cc3ncccc3OCCO)cc3ccccc23)CC1 (as salt: hydrochloride) [Example 188, 1-(1-Ethylpiperazin-4-Yl)-3-[3-(2-Hydroxyethoxy)-2-Pyridyl]Ethynylisoquinoline]",153 to 159 °C
17,"CCN1CCN(c2nc(/C=C/c3ccccc3)cc3ccccc23)CC1 (as salt: hydrochloride) [Example 189, 1-(1-Ethylpiperazin-4-Yl)-3-(Trans-2-Phenylethenyl)Isoquinoline Dihydrochloride]",222 to 225 °C

row,Compound,melting point
1,"CCN1CCN(c2nc(/C=C/c3ccc(OC)cc3)cc3ccccc23)CC1 (as salt: hydrochloride) [Example 190, 1-(1-Ethylpiperazin-4-Yl)-3-[Trans-2-(4-Methoxyphenyl)Ethenyl]Isoquinoline Dihydrochloride]",227 °C (dec.)
2,"CCN1CCN(c2nc(/C=C/c3ccc(S(C)(=O)=O)cc3)cc3ccccc23)CC1 (as salt: hydrochloride) [Example 201, 3-[(E)-2-(4-Methylsulfonylphenyl)Ethenyl]-1-(4-Ethylpiperazin-1-Yl)Isoquinoline Hydrochloride]",170 to 174 °C
3,"CCN1CCN(c2nc(/C=C/c3ccccn3)cc3ccccc23)CC1 (as salt: hydrochloride) [Example 209, 1-(1-Ethylpiperazin-4-Yl)-3-[Trans-2-(2-Pyridyl)Ethenyl]Isoquinoline Trihydrochloride]",220 °C (dec.)
4,"CCN1CCN(c2nc(C(=O)Nc3ccccc3)cc3ccccc23)CC1 (as salt: hydrochloride) [Example 218, 1-(ethylpiperazin-4-yl)-N-phenyl-3-isoquinolinecarboxamide dihydrochloride]",260 °C (dec.)
5,"CCN1CCN(c2nc(-c3ccc(OC)cc3)c(OC)c3ccccc23)CC1 (as salt: hydrochloride) [Example 221, 1-(1-ethylpiperazin-4-yl)-4-methoxy-3-(4-methoxyphenyl)isoquinoline dihydrochloride]",227 to 235 °C
6,"CCN1CCN(c2nc(-c3ccc(OCCO)cc3)cc3cc(F)ccc23)CC1 (as salt: hydrochloride) [Example 223, 1-(4-ethylpiperazin-1-yl)-3-[4-(2-hydroxyethoxy)phenyl]-6-fluoroisoquinoline dihydrochloride]",152 to 170 °C
7,"CCN1CCN(c2nc(-c3ccc(OC)cc3)cc3ccc(F)cc23)CC1 (as salt: hydrochloride) [Example 229, 1-(4-ethylpiperazin-1-yl)-7-fluoro-3-(4-methoxyphenyl)isoquinoline dihydrochloride]",220 to 225 °C
8,"CCN1CCN(c2nc(-c3ccc(OC)cc3)cc3cccc(F)c23)CC1 (as salt: hydrochloride) [Example 233, 1-(1-ethylpiperazin-4-yl)-8-fluoro-3-(4-methoxyphenyl)isoquinoline dihydrochloride]",222 to 227 °C
9,"CCN1CCN(c2nc(-c3ccc(OCCO)cc3)cc3cccc(F)c23)CC1 (as salt: hydrochloride) [Example 234, 1-(1-ethylpiperazin-4-yl)-8-fluoro-3-[4-(2-hydroxyethoxy)phenyl]isoquinoline dihydrochloride]",215 to 219 °C
10,"COc1ccc(-c2cc3ccccc3c(N3CCN(C4CC4)CC3)n2)cc1 (as salt: hydrochloride) [Example 239, 1-(1-cyclopropylpiperaziin-4-yl)-3-(4-methoxyphenyl)isoquinoline dihydrochloride]",138 to 143 °C
11,"C=CCN1CCN(c2nc(-c3ccc(OC)cc3)cc3ccccc23)CC1 (as salt: hydrochloride) [Example 240, 1-(1-allylpiperazin-4-yl)-3-(4-methoxyphenyl)isoquinoline dihydrochloride]",111 to 116 °C
12,"COc1ccc(-c2cc3ccccc3c(N3CCN(CCO)CC3)n2)cc1 (as salt: hydrochloride) [Example 242, 1-[4-(2-hydroxyethyl)piperazin-1-yl]-3-(4-methoxyphenyl)isoquinoline Dihydrochloride]",163 to 165 °C
13,"CCS(=O)(=O)NCc1ccc(-c2cc3ccccc3c(N3CCN(CCO)CC3)n2)cc1 (as salt: hydrochloride) [Example 243, 3-(4-ethylsulfonylaminomethylphenyl)-1-[4-(2-hydroxyethyl)piperazin-1-yl]isoquinoline Hydrochloride]",171 to 174 °C
14,"CCN1CCN(c2nc(-c3ccc(OCCO)cc3)cc3cccnc23)CC1 (as salt: hydrochloride) [Example 245, 8-(1-ethylpiperazin-4-yl)-6-[4-(2-hydroxyethoxy)phenyl]-1,7-naphthyridine Dihydrochloride]",137 to 143 °C
15,"CCN1CCN(c2nc(-c3ccc(CCCO)cc3)cc3cccnc23)CC1 (as salt: hydrochloride) [Example 247, 8-(1-ethylpiperazin-4-yl)-6-[4-(3-hydroxypropyl)phenyl]-1,7-naphthyridine Dihydrochloride]",119 to 122 °C
16,"CCN1CCN(c2nc(-c3ccc(CCC(C)O)cc3)cc3cccnc23)CC1 (stereo not shown) (as salt: hydrochloride) [Example 248, 8-(1-ethylpiperazin-4-yl)-6-[4-(3-hydroxybutyl)phenyl]-1,7-naphthyridine Dihydrochloride]",118 to 121 °C
17,"CCN1CCN(c2nc(-c3ccc(C(F)CCO)cc3)cc3cccnc23)CC1 (stereo not shown) (as salt: hydrochloride) [Example 249, 8-(1-ethylpiperazin-4-yl)-6-[4-(3-hydroxy-1-fluoropropyl)phenyl]-1,7-naphthyridine Dihydrochloride]",123 to 125 °C
